{
  "source": "patent US20140081110A1",
  "about": "“ELECTROPHYSIOLOGICAL DIAGNOSIS AND TREATMENT FOR ASTHMA” (University of Liverpool, priority 2011, published 2014)",
  "origin": "cited, not measured here",
  "tested_on": "normal airway",
  "conditions": "UK guidance on asthma (British Guideline on the Management of Asthma, Revised January 2012)",
  "data": [
    {"smiles": "CC(=O)OC(C)C[N+](C)(C)C", "note": "(stereo not shown) [methacholine]", "values": [
      {"measurement": "methacholine dose required to reduce the Forced Expiratory Volume in 1 Second (FEV1) by 20%", "value": "> 8", "unit": "mg/mL"}
    ]}
  ]
}
